Reference: US5843916A, “Cyclic amp analogues, individually and in pairs, to inhibit neoplastic cell growth” (priority 1994, dated 1998)
pIC50: −log10 of the molar value. Entries after “also recorded” stand apart in the source; their conditions may differ. Where two headings read alike, the source gives them in different places.

What was measured:
[1] = molecular target: T1, RI, regulatory subunit of cAMP-dependent protein kinase type I (Oryctolagus cuniculus, UniProt G1TDN4); test: Binding affinity for RI (Table 14)
T1 construct: from tissue
T1 sequence (G1TDN4 1-381): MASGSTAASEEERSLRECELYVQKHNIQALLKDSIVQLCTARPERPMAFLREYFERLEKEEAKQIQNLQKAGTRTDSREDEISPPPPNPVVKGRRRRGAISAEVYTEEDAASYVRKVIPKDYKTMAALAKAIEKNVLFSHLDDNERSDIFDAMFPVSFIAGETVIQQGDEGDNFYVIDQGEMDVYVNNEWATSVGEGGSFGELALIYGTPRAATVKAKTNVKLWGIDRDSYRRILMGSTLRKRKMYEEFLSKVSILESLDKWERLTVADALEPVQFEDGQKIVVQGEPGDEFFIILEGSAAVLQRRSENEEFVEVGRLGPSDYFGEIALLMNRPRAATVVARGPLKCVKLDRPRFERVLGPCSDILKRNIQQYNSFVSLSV
Method: (§1) RI and RII are the regulatory subunits of cAMP-dependent protein
(§2) kinase type I and type II, respectively. Site A (Site 2) and Site B
(§3) (RI and RII): the affinities of analogues for Site A and Site B were
(§4) determined by the measurement of kinetic constants (inhibition constant,
(§5) Ki), and the values are expressed as the relative affinity Ki
(§6) (analogue), i.e., the ratio between the apparent inhibition constant for
(§7) cAMP and the analogue, as described in Ogreid et al., Eur. J. Biochem.

[2] = test system: RI, regulatory subunit of cAMP-dependent protein kinase type I; test: Binding affinity for RI (Table 14); conditions: compared with 8-Cl-cAMP
Method: as §1, §2, §3, §4, §5, §6, §7

[3] = molecular target: T2, RII, regulatory subunit of cAMP-dependent protein kinase type II (Bos taurus, UniProt P00515); test: Binding affinity for RII (Table 14)
T2 construct: from tissue
T2 sequence (P00515 whole entry): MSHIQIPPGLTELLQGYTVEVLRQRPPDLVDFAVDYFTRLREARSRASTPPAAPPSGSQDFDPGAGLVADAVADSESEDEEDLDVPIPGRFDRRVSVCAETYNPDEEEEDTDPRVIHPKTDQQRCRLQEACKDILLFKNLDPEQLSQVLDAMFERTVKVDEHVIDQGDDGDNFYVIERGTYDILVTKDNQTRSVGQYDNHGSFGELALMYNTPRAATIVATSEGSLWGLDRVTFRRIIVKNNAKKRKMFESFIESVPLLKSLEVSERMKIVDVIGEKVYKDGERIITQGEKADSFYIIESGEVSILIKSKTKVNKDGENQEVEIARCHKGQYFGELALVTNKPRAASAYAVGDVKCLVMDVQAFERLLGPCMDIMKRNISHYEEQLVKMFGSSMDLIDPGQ
Method: as §1, §2, §3, §4, §5, §6, §7

[4] = molecular target: T3, Protein kinase type I (cAKI) (Oryctolagus cuniculus, UniProt G1TDN4); test: Protein kinase activation (Table 15); type: biochemical, rabbit (skeletal muscle); conditions: half-maximum activation; U. M.: unmeasurable
T3 construct: prepared from rabbit skeletal muscle and bovine heart; from tissue; host or cells: rabbit skeletal muscle
T3 sequence (G1TDN4 1-381): as the sequence (G1TDN4 1-381) above
Method: (§8) ATP to Kemptide as described by Ogreid et al., Eur. J. Biochem. 150: 219-227 (1985).
(§9) Protein kinases types I (cAKI) and II (cAKII) were
(§10) prepared from rabbit skeletal muscle and bovine heart,
(§11) respectively, as described in D.o slashed.skeland et al. (J. Biol.
(§12) of the protein kinase in Ogreid et al. (Eur. J. Biochem.

[5] = molecular target: T4, Protein kinase type II (cAKII) (Bos taurus, UniProt P00515); test: Protein kinase activation (Table 15); type: biochemical, bovine (heart); conditions: half-maximum activation; U. M.: unmeasurable
T4 construct: prepared from rabbit skeletal muscle and bovine heart; from tissue; host or cells: bovine heart
T4 sequence (P00515 2-401 limits assumed): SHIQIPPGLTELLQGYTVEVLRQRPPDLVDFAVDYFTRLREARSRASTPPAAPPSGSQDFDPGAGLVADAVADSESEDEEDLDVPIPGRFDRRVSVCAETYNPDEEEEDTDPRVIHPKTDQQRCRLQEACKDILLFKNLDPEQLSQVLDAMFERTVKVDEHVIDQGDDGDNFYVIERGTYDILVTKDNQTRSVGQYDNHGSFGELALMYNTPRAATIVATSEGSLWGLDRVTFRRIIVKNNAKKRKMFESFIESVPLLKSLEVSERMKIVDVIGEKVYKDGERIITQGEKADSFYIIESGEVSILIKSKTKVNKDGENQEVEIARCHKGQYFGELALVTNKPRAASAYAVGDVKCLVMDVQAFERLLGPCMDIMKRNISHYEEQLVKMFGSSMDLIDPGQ
Method: as §8, §9, §10, §11, §12

[6] = test system: HL-60 human leukemia cells; test: Growth inhibition of HL-60 leukemia cells (Example 3, Table 16); type: cell-based; conditions: for pIC50: Homo sapiens; for fold less potent than 8-Cl-cAMP: growth inhibition HL-60, day 6
Method: HL-60 leukemic cells were obtained from the American Type Culture Collection (Rockville, Md.) and were grown in suspension culture in RPMI 1640 supplemented with 10% heat-inactivated fetal bovine serum, streptomycin (500 μg/ml), penicillin (50 units/ml), and glutamine (1 mM) (Gibco, Grand Island, N.Y.).
Cell counts were performed at desired times on a Coulter Counter.
The IC50 values were determined from the dose-
represent an average value obtained for each analogue
from two or more separate experiments carried out from 3
days or 6 days. Initial cell number, 1 × 10^5 /dish.
Typical numbers of untreated control cells at day 3 and
viability in treated and control cells.

HL-60 Cells = test: Cell cycle kinetics of HL-60 cells (Table 17); type: cell-based, human; conditions: for % G2 M: control 8.3; for % G0-G1: control 45.7; for % S: control 46
Method: (§13) Briefly, cells were fixed in 70% ethanol and stored at 4° C. before analysis. Nuclear DNA was stained with propidium iodide, 50 μg/ml in phosphate-buffered saline (pH 7.4), for 30 minutes at room temperature. RNase was added to avoid double-helix RNA staining. The DNA content of cells was analyzed by a FACScan flow cytometer coupled with a Hewlett-Packard computer. Cell cycle data analysis was performed by a Cell-FIT program according to the method of Dean (Cell Tissue Kinet. 13: 299-308 (1980)) (Becton Dickinson Immunocytometry Systems). Pulse area versus pulse width gating was performed to exclude doublets from the G2 -M region. For each sample, 20,000 events were stored in list mode. Cell surface antigen analysis was performed by flow cytometry with FACScan using a panel of monoclonal antibodies reactive with either monocytic or myeloid cells.

[7] = test system: LS-174T human colon carcinoma cells; test: Growth inhibition of LS-174T cells (Example 4, Table 18); type: cell-based
Method: LS-174T human colon carcinoma cells were obtained from the National Cancer Institute, Division of Cancer Treatment, Bethesda, Md., and were grown in Eagle's minimum essential medium supplemented with 10% heat-inactivated fetal bovine serum, Eagle's minimum essential medium nonessential amino acids, 20 mM 4-(2-hydroxyethyl)-1-piperazineethanesulfonic acid, 2mM glutamine, and penicillin-streptomycin (Gibco). The medium was changed every 48 hours.
LS-174T cells were seeded at a density of 2×10^5 / 60 mm dish. […] At desired times, cell counts were performed in duplicate on a Coulter Counter after harvesting cells with gentle trypsinization.
The percentage growth inhibition values shown at 10
and 50 μM analogue concentrations were determined from
the dose-response curve experiments like those shown in
FIG. 1 and represent an average value obtained for each
analogue from two or more separate experiments. Sp-6-SET-

[8] = test system: LS-174T human colon carcinoma cells; test: Additive growth inhibition with 8-Cl-cAMP (Table 19); type: cell-based
Method: The medium was changed every 48 hours.
At desired times, cell counts were performed in duplicate on a Coulter Counter after harvesting cells with gentle trypsinization.
The analogues were added at 24

HL-60 leukemia cells = test: Surface antigen expression of HL-60 cells (Example 5); type: cell-based, human; conditions: Homo sapiens, HL-60, 72 h
Method: as §13
The effect of Rp- and Sp-8-Cl-cAMPS on the expression of differentiation markers in HL-60 cells was examined to determine if the growth-arrested HL-60 cells are more differentiated than untreated cells. […] For each sample, 2×10^4 cells were analyzed. Cell surface antigen analysis was performed by flow cytometry with FACScan. Cell gating was performed using forward and side scatter.

[9] = test system: cAMP-phosphodiesterase (PDE); conditions: no test described; cited from earlier work

Compound: Nc1ncnc2c1nc(Cl)n2[C@@H]1O[C@@H]2CO[P@@](O)(=S)O[C@H]2[C@H]1O [Rp-8-Cl-cAMPS, Rp-(equatorial exocyclic sulfursubstitution) 8-chloro-adenosine 3': 5'-monophosphorothioate]
- relative affinity Ki (cAMP)/Ki (analogue), RI Site A ([1]; Site A (Site 2)): 0.0079
- relative affinity Ki (cAMP)/Ki (analogue), RI Site B ([1]; Site B (Site 1)): 0.0042
- decrease in affinity for Site A of RI vs corresponding cyclophosphate ([1]; vs cyclophosphate): 340 fold
- decrease in affinity for Site B of RI vs corresponding cyclophosphate ([1]; vs cyclophosphate): 480 fold
- affinity for cAMP receptor protein / protein kinase [2]: reduced affinity for the cAMP receptor protein
- relative affinity Ki (cAMP)/Ki (analogue), RII Site A ([3]; Site A (Site 2)): 0.00028
- relative affinity Ki (cAMP)/Ki (analogue), RII Site B ([3]; Site B (Site 1)): 0.44
- decrease in affinity for Site A of RII vs corresponding cyclophosphate ([3]; vs cyclophosphate): 180 fold
- decrease in affinity for Site B of RII vs corresponding cyclophosphate ([3]; vs cyclophosphate): 10 fold
- Activation Constant (Ka), cAKI [4]: U. M.
- Activation Constant (Ka), cAKII [5]: U. M.
- growth inhibitory potency ([6]; HL-60): less inhibitory than 8-Cl-cAMP but was more potent than Sp-8-Cl-cAMPS
- pIC50 ([6]; HL-60, 72 h, read-out: Growth inhibition (IC50), Day 3): 4.80
- pIC50 ([6]; HL-60, 144 h, read-out: Growth inhibition (IC50), Day 6): 5.52
- fold less potent than 8-Cl-cAMP [6]: about 10 fold
- fold less potent than 8-Cl-cAMP ([6]; listed as Rp-phosphorothioate of 8-Cl-cAMP): 10 fold
- growth inhibitory effect greater than that of Sp-8-Cl-cAMPS ([6]; vs Sp-8-Cl-cAMPS): 3 fold
- % G2 M (HL-60 Cells; 10 μM, 96 hours): 9.8%
- % G0-G1 (HL-60 Cells; 10 μM, 96 hours): 43.5%
- % S (HL-60 Cells; 10 μM, 96 hours): 46.7%
- % G2 M (HL-60 Cells; 50 μM, 96 hours): 9.0%
- % G0-G1 (HL-60 Cells; 50 μM, 96 hours): 41.6%
- % S (HL-60 Cells; 50 μM, 96 hours): 49.4%
- % G2 M (HL-60 Cells; 100 μM, 96 hours): 10.9%
- % G0-G1 (HL-60 Cells; 100 μM, 96 hours): 37.9%
- % S (HL-60 Cells; 100 μM, 96 hours): 51.2%
- toxic effect (HL-60 Cells; 100 μM, 96 hours, footnote b): Toxic effect
- cell cycle phase distribution (HL-60 Cells; HL-60, 96 hours in Table 17): not appreciably different; also recorded: did not bring about any change in cell cycle phase
- inhibition at 10 µM ([7]; Homo sapiens, LS174T): 48%
- inhibition at 50 µM ([7]; Homo sapiens, LS174T): 70%
- growth inhibitory potency ([7]; LS-174T): greatest inhibition of cell growth
- inhibition at 5 µM ([8]; Homo sapiens, LS174T, 96 h, 5 μM, 4 days): 34%
- inhibition at 10 µM ([8]; Homo sapiens, LS174T, 96 h, 10 μM, 4 days): 48%
- inhibition at 200 µM ([8]; Homo sapiens, LS174T, 96 h, 200 μM, 4 days): 80%
- effect on growth-inhibitory effect of 8-Cl-cAMP ([8]; with 8-Cl-cAMP): additive effect
- viability at 50 µM (HL-60 leukemia cells; read-out: cell viability): 90%
- fold induction at 50 µM (HL-60 leukemia cells; read-out: increase of HLA-DR over control): 2
- fold induction at 50 µM (HL-60 leukemia cells; read-out: increase of Leu-15 over control): 3
- hydrolysis by phosphodiesterase [9]: resistant to hydrolysis
